Among the data in US12351855B2, “Bioelectronic circuits, systems and methods for preparing and using them” (priority 2019, dated 2025) are Kd and polymerase activity values, retold here.

The term Kd denotes the free concentration of one partner at which half of the binding sites on the other are occupied at equilibrium, for simple one-to-one binding.

Non-standard residues stand in square brackets, D forms with d.

The target of one data set is IgG Anti-HIV. It counts as binding.
For the next data set, the target named is αVβ3 Integrin (Homo sapiens, UniProt P05106+P06756). As to conditions: Table 1 adapted from Zhang et al.; not among the SPR-measured affinities; cited from earlier work.
Sequence of αVβ3 Integrin (P06756 31-889 limits assumed): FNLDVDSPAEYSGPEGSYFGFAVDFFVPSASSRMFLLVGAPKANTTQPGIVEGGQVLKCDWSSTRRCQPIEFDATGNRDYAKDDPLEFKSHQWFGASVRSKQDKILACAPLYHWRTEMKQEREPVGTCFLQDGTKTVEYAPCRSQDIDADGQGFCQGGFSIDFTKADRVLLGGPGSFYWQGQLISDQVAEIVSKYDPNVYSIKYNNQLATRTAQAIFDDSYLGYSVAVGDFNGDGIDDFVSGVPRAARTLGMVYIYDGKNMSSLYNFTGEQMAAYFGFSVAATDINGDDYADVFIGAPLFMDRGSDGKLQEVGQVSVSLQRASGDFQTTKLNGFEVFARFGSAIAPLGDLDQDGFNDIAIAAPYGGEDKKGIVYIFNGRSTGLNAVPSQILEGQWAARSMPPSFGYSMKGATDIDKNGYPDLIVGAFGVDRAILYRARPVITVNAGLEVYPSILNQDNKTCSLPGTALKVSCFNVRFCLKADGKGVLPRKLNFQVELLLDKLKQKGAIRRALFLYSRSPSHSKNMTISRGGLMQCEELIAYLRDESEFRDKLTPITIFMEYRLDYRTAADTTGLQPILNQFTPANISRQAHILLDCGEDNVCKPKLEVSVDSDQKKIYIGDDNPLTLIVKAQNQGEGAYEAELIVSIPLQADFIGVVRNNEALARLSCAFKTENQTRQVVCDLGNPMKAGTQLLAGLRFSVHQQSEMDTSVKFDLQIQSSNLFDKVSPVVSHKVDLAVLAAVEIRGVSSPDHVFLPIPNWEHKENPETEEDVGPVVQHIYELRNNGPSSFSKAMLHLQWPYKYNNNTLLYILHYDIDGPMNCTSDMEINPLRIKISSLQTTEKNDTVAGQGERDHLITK
Sequence of αVβ3 Integrin (P06756 891-1048 partner limits assumed): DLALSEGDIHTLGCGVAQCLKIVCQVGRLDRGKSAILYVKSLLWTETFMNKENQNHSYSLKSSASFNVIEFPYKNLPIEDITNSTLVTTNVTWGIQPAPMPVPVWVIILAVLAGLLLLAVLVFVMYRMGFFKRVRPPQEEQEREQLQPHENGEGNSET
Sequence of αVβ3 Integrin (P05106 27-788): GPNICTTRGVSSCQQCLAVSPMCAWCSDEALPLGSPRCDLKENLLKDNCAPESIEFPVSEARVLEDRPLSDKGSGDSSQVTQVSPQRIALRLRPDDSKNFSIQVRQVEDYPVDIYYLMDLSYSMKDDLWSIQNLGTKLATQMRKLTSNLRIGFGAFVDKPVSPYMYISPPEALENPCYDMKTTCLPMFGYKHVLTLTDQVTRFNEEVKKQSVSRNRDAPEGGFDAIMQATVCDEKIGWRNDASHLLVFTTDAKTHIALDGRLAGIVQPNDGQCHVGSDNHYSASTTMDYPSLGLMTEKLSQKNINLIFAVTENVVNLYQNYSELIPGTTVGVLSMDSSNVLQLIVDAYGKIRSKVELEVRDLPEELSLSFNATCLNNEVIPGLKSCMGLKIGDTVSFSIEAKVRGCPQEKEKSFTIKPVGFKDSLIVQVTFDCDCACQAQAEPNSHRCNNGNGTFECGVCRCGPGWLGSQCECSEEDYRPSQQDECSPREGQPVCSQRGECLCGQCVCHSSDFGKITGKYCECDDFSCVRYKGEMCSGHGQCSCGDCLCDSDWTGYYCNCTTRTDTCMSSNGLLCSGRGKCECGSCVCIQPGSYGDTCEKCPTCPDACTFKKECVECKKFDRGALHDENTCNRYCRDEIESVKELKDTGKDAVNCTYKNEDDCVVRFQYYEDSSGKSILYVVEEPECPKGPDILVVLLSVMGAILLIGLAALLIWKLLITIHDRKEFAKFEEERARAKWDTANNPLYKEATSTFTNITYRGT
The next data set deals with IgE Anti-DNP. It counts as binding, mouse.
The target of another data set is IgG Anti-Ebola. It counts as binding.
In the next data set the test system is DNA template. The experiment in a line: Rolling-circle amplification of a DNA template, DNA gel of polymerization product. The class given is biochemical. As to conditions: polymerase bound by two streptavidin molecules; versus native enzyme with exonuclease activity deleted. The method, then:
To confirm that the modified polymerase was still active, rolling-circle amplification of a DNA template was carried out with the molecule 35 as bound by two streptavidin molecules.

Take CALDRWEKIRLR: the Kd at IgG Anti-HIV worked out at 240 nM.
For cyclo(RGD[dF]C) [Cyclic RGDfC], the Kd at αVβ3 Integrin is around 10 nM.
For the molecule HSCH2CH2-dinitrophenol, the Kd at IgE Anti-DNP turned out to be 65 nM.
As to CHNTPVYKLDISEATQV, binding on IgG Anti-Ebola was characterised by a dissociation constant (Kd) of 1400 nM.

B1: bis-biotinylated polymerase: exonuclease-deleted ϕ29 polymerase with biotinylated Avitags inserted between G111/K112 and E279/D280 (protein)
chain: MKHMPRKMYSCAFATTTKVEDCRVWAYGYMNIEDHSEYKIGNSLDEFMAWVLKVQADLYFHNLKFDGAFIINWLERNGFKWSADGLPNTYNTIISRMGQWYMIDICLGYKGGLNDIFEAQKIEWHEKRKIHTVIYDSLKKLPFPVKKIAKDFKLTVLKGDIDYHKERPVGYKITPEEYAYIKNDIQIIAEALLIQFKQGLDRMTAGSDSLKGFKDIITTKKFKKVFPTLSLGLDKEVRYAYRGGFTWLNDRFKEKEIGEGMVFDVNSLYPAQMYSRLLPYGEPIVFEGKYVWDEGLNDIFEAQKIEWHEDYPLHIQHIRCEFELKEGYIPTIQIKRSRFYKGNEYLKSSGGEIADLWLSNVDLELMKEHYDLYNVEYISGLKFKATTGLFKDFIDKWTYIKTTSEGAIKQLAKLMLNSLYGKFASNPDVTGKVPYLKENGALGFRLGEEETKDPVYTPMGVFITAWARYTTITAAQACYDRIIYCDTDSIHLTGTEIPDVIKDIVDPKKLGYWAHESTFKRAKYLRQKTYIQDIYMKEVDGKLVEGSPDDYTDIKFSVKCAGMTDKIKKEVTFENFKVGFSRKMKPKPVQVPGGVVLVDDTFTIK
For the molecule B1, in the data set with DNA template, the polymerase activity entry is reported as “comparable to that of the native enzyme”.
